Among the data in ChEMBL document CHEMBL4304811, “Development of a Water-Soluble Indolylmaleimide Derivative IM-93 Showing Dual Inhibition of Ferroptosis and NETosis” (ACS Med Chem Lett, 2019) are inhibition, Activity and IC50 values, retold here.

pIC50: −log10 of the molar value. The source made the active and inactive calls. The calls are words filed in the database; no cut-off is given here.

For one assay, the system named is Neutrophil. Description: Inhibition of PMA-induced NETosis in human neutrophils assessed as inhibition of ROS production at 25 uM pretreated for 25 mins followed by PMA stimulation and measured after 20 mins by DCFH-DA based flow cytometry. The class given is functional, cell-based. (In flow cytometry, cells or beads pass a laser one at a time.)
The subject of assay [1] is Receptor-type tyrosine-protein kinase FLT3 (Homo sapiens), P36888 [D835Y]. Description: Binding affinity to human partial length FLT3 D835Y mutant (Q580 to Y969 residues) expressed in bacterial expression system assessed as residual binding level at 10 uM by Kinomescan method relative to control.
The test system of assay [2] is Receptor-type tyrosine-protein kinase FLT3 (Homo sapiens), P36888 [K663Q]. Description: Binding affinity to human partial length FLT3 K663Q mutant (V592 to Y969 residues) expressed in bacterial expression system assessed as residual binding level at 10 uM by Kinomescan method relative to control.
The target of assay [3] is Serine/threonine-protein kinase Nek3 (Homo sapiens) (UniProt P51956). Description: Binding affinity to wild-type human full length NEK3 (M1 to R506 residues) expressed in mammalian expression system assessed as residual binding level at 10 uM by Kinomescan method relative to control.
In assay [4] the target is Cyclin-dependent kinase 2 (Homo sapiens) (UniProt P24941). Description: Binding affinity to wild-type human full length CDK2 (M1 to L298 residues) expressed in bacterial expression system assessed as residual binding level at 10 uM by Kinomescan method relative to control.
The target in assay [5] is Phosphatidylinositol 4,5-bisphosphate 3-kinase catalytic subunit alpha isoform (Homo sapiens) (UniProt P42336). Description: Binding affinity to wild-type human partial length PIK3CA (R108 to N1068 residues) expressed in mammalian expression system assessed as residual binding level at 10 uM by Kinomescan method relative to control.
Assay [6] deals with Leucine-rich repeat serine/threonine-protein kinase 2 (Homo sapiens), Q5S007 [G2019S]. Description: Binding affinity to human partial length LRRK2 G2019S mutant (H970 to E2527 residues) expressed in mammalian expression system assessed as residual binding level at 10 uM by Kinomescan method relative to control.
Assay [7] deals with Epidermal growth factor receptor (Homo sapiens), P00533 [L858R]. Description: Binding affinity to human partial length EGFR L858R mutant (R669 to V1011 residues) expressed in bacterial expression system assessed as residual binding level at 10 uM by Kinomescan method relative to control.
Assay [8] concerns the target Serine/threonine-protein kinase TNNI3K (Homo sapiens) (UniProt Q59H18). Description: Binding affinity to wild-type human full length TNNI3K (M1 to S835 residues) expressed in bacterial expression system assessed as residual binding level at 10 uM by Kinomescan method relative to control.
The target in assay [9] is Mitogen-activated protein kinase 4 (Homo sapiens) (UniProt P31152). Description: Binding affinity to wild-type human partial length ERK4 (M1 to L365 residues) expressed in bacterial expression system assessed as residual binding level at 10 uM by Kinomescan method relative to control.
Assay [10] addresses Ankyrin repeat and protein kinase domain-containing protein 1 (Homo sapiens) (UniProt Q8NFD2). Description: Binding affinity to wild-type human partial length ANKK1 (M1 to A305 residues) expressed in mammalian expression system assessed as residual binding level at 10 uM by Kinomescan method relative to control.
In assay [11] the target is Serine/threonine-protein kinase 38-like (Homo sapiens) (UniProt Q9Y2H1). Description: Binding affinity to wild-type human partial length NDR2 (N34 to E447 residues) expressed in bacterial expression system assessed as residual binding level at 10 uM by Kinomescan method relative to control.
For assay [12], the target named is Tyrosine-protein kinase ABL1 (Homo sapiens) (UniProt P00519). Description: Binding affinity to wild-type human phosphorylated ABL1 (S229 to K512 residues) expressed in mammalian expression system assessed as residual binding level at 10 uM by Kinomescan method relative to control.
The target in assay [13] is Protein kinase C theta type (Homo sapiens) (UniProt Q04759). Description: Binding affinity to wild-type human partial length PRKCQ (L350 to S706 residues) expressed in bacterial expression system assessed as residual binding level at 10 uM by Kinomescan method relative to control.
The subject of assay [14] is Receptor-type tyrosine-protein kinase FLT3 (Homo sapiens), P36888 [N841I]. Description: Binding affinity to human partial length FLT3 N841I mutant (V592 to Y969 residues) expressed in bacterial expression system assessed as residual binding level at 10 uM by Kinomescan method relative to control.
Assay [15] relates to Phosphatidylinositol 4,5-bisphosphate 3-kinase catalytic subunit alpha isoform (Homo sapiens), P42336 [H1047L]. Description: Binding affinity to human partial length PIK3CA H1047L mutant (R108 to N1068 residues) expressed in mammalian expression system assessed as residual binding level at 10 uM by Kinomescan method relative to control.
In assay [16] the target is BDNF/NT-3 growth factors receptor (Homo sapiens) (UniProt Q16620). Description: Binding affinity to wild-type human partial length TRKB (Q547 to G838 residues) expressed in mammalian expression system assessed as residual binding level at 10 uM by Kinomescan method relative to control.
A further assay relates to NIH3T3. Description: Inhibition of erastin-induced ferroptosis in mouse NIH/3T3 cells after 24 hrs by WST-8 assay. It counts as functional, cell-based. The following applies: NIH3T3, 24 h.
In assay [17] the target is cAMP-dependent protein kinase catalytic subunit alpha (Homo sapiens) (UniProt P17612). Description: Binding affinity to wild-type human partial length PKAC-alpha (G10 to F351 residues) expressed in bacterial expression system assessed as residual binding level at 10 uM by Kinomescan method relative to control.
Assay [18] deals with Epithelial discoidin domain-containing receptor 1 (Homo sapiens) (UniProt Q08345). Description: Binding affinity to wild-type human partial length DDR1 (R565 to V876 residues) expressed in bacterial expression system assessed as residual binding level at 10 uM by Kinomescan method relative to control.
The target of assay [19] is Serine/threonine-protein kinase Chk1 (Homo sapiens) (UniProt O14757). Description: Binding affinity to wild-type human partial length CHEK1 (M1 to G289 residues) expressed in bacterial expression system assessed as residual binding level at 10 uM by Kinomescan method relative to control.
The subject of assay [20] is Mast/stem cell growth factor receptor Kit (Homo sapiens), P10721 [L576P]. Description: Binding affinity to human partial length KIT L576P mutant (Y545 to D952 residues) expressed in bacterial expression system assessed as residual binding level at 10 uM by Kinomescan method relative to control.
Assay [21] concerns the target Serine/threonine-protein kinase pim-1 (Homo sapiens) (UniProt P11309). Description: Binding affinity to wild-type human partial length PIM1 (A15 to K313 residues) expressed in bacterial expression system assessed as residual binding level at 10 uM by Kinomescan method relative to control.
Assay [22] concerns the target Vascular endothelial growth factor receptor 1 (Homo sapiens) (UniProt P17948). Description: Binding affinity to wild-type human partial length FLT1 (R781 to F1239 residues) expressed in bacterial expression system assessed as residual binding level at 10 uM by Kinomescan method relative to control.

Consider `CC(C)N1C(=O)C(NCCCN(C)C)=C(c2cn(C)c3ccccc23)C1=O.Cl`, for which, in the assay with Neutrophil, the inhibition entry was “inactive”. Besides, the Activity in [1] was found to be 94%; in assay [2], 97%; in assay [3], 94%; in assay [4], 92%; in assay [5], 76%; in assay [6], 91%. Also, the Activity in assay [7] was found to be 82%; in [8], 100%; in assay [9], 100%; in assay [10], 90%; in assay [11], 74%; in [12], 92%. Besides, the Activity in assay [13] is 100%; in assay [14] it was 100%; in [15] it was 78%; in assay [16], 94%; in assay [17], 84%; in assay [18] it was 100%. The Activity in assay [19] came to 100%; in assay [20], 87%; in [21], 100%; in assay [22], 82%. For the same molecule, the pIC50 (commonly −log10 of the IC50, conventionally taken in molar units) in the assay with NIH3T3 was 5.72.
